Laboratory results taken from EP0579733B1, “THIAZOLIDINEDIONE DERIVATIVES, PRODUCTION AND USE THEREOF” (priority 1991, dated 1992).

Key:
mice = assay: Toxicity after oral administration to mice (lethality); assay type: in vivo; settings: orally administered to mice in a dose of 300 mg/kg
Description: The compound (I), the pharmacologically acceptable salt thereof, or the pure stereoisomeric form thereof has hypoglycemic and hypolipidemic activities. Further, the compound (I), the pharmacologically acceptable salt thereof or the pure stereoisomeric form thereof has low toxicity. […] Therefore, the compound (I), its pharmacologically acceptable salt or pure stereoisomeric form can be used for treatment of diabetes of mammals including man as it is or by combining with a known pharmacologically acceptable carrier, excipient, filler and the like.

KKA^y-mice = assay: Hypoglycemic and hypolipidemic activities in mice; assay type: in vivo; settings: 0.005% by weight in chow diet, given freely for 4 days, KKA^y-mice (male, 9 to 10 weeks old); for Hypoglycemic activity (%): % reduction of blood sugar level from control groups, glucose oxidase method; for Hypolipidemic activity (%): % reduction of plasma lipid level from control groups, Kit Cleantech TG-S
Experimental: Test compounds were mixed with laboratory chow diet (CE-2, Clea Japan Inc., Tokyo, Japan) in a proportion of 0.005% by weight. The dietary admixture was given freely to KKA^y-mice (male, 9 to 10 weeks old) for 4 days. During the period, water was given freely. Blood was collected from the orbitral venous plexus. The blood sugar level was determined according to glucose oxidase method. The plasma lipid level was enzymatically determined by using Kit Cleantech TG-S (Iatron, Tokyo, Japan). Values represent % reduction from control groups.

Compound	lethality (mice)	Hypoglycemic activity (%) (KKA^y-mice)	Hypolipidemic activity (%) (KKA^y-mice)
CC(O)c1ccc(CCOc2ccc(CC3SC(=O)NC3=O)cc2)nc1 (stereo not drawn) [Example 1, 5-[4-[2-[5-(l-hydroxyethyl)-2-pyridyl]ethoxy]benzyl]-2,4-thiazolidinedione]	no lethal case was observed	46	5
CC(=O)c1ccc(CCOc2ccc(CC3SC(=O)NC3=O)cc2)nc1 (stereo not drawn) [Example 2, 5-[4-[2-(5-acetyl-2-pyridyl)ethoxy]benzyl]-2,4-thiazolidinedione]	no lethal case was observed	56	43
